Assay [1] deals with Enterovirus A71. In words: Antiviral activity against EV71 infected in human RD cells assessed as cell survival rate at 1 to 2 mg/ml after 24 hrs by WST-1 assay. Type of assay: functional.
The subject of assay [2] is RD. In words: Inhibitory activity of EMCV IRES co-transfected with EV71 5' UTR in human RD cells at 2 mg/ml after 24 hrs by luciferase reporter gene assay. The assay is classed as cell-based. The following applies: Encephalomyocarditis virus.
Assay [3] concerns RD. Description: Inhibitory activity of EV71 IRES co-transfected with EMCV IRES in human RD cells at 2 mg/ml after 24 hrs by luciferase reporter gene assay. The assay is classed as cell-based. To be noted: Enterovirus A71.
In assay [4] the test system is Enterovirus A71. In words: Antiviral activity against EV71 infected in human RD cells assessed as viral RNA transcript level at 2 mg/ml treated 24 hrs prior to infection measured after 24 hrs by real time RT-PCR analysis. Type of assay: functional.
Assay [5] has as its system Enterovirus A71. Description: Antiviral activity against EV71 infected in human RD cells assessed as viral RNA transcript level at 1 mg/ml treated 24 hrs prior to infection measured after 24 hrs by real time RT-PCR analysis. Type of assay: functional.
Assay [6] deals with Enterovirus A71. In words: Antiviral activity against EV71 infected in human RD cells assessed as inhibition of viral infection at 2 mg/ml treated 24 hrs prior to infection measured after 72 hrs by WST-1 assay. The following applies: Enterovirus A. The assay is classed as functional.

Turning to `COC(=O)C1=CO[C@@H](O)[C@@H]2C(CO)=CC[C@H]12` [GENIPIN], in the assay with Enterovirus A71 [1], the Survival entry is on record as “>=80%”.

With `CC(/C=C/C=C(\C)C(=O)O[C@@H]1O[C@H](CO[C@@H]2O[C@H](CO)[C@@H](O)[C@H](O)[C@H]2O)[C@@H](O)[C@H](O)[C@H]1O)=C\C=C\C=C(C)\C=C\C=C(/C)C(=O)O[C@@H]1O[C@H](CO[C@@H]2O[C@H](CO)[C@@H](O)[C@H](O)[C@H]2O)[C@@H](O)[C@H](O)[C@H]1O` [CROCIN], the Survival entry in the assay on Enterovirus A71 [1] was “>=80%”.

`COC(=O)C1=CO[C@@H](O[C@@H]2O[C@H](CO)[C@@H](O)[C@H](O)[C@H]2O)[C@@H]2C(CO)=CC[C@H]12` [GENIPOSIDE]: the inhibition with RD [2] and in the assay on RD [3] was 50% throughout. Besides, the Activity stood at 20% in the assay with Enterovirus A71 [4] and 60% with Enterovirus A71 [5]. Further, the inhibition at 2000 µg/mL in the assay on Enterovirus A71 [6] is 80%. In the assay with Enterovirus A71 [1], the Survival result is “>=80%”.

Regarding `O=C(O)C1=CO[C@@H](O[C@@H]2O[C@H](CO)[C@@H](O)[C@H](O)[C@H]2O)[C@@H]2C(CO)=CC[C@H]12` [GENIPOSIDIC ACID], the Survival result in the assay with Enterovirus A71 [1] is “>=80%”.

These data come from ChEMBL document CHEMBL2331300, “Inhibition of enterovirus 71 infections and viral IRES activity by Fructus gardeniae and geniposide” (2013).
